Test results as given in ChEMBL document CHEMBL3046477, “Carbamate derivatives of felbamate as potential anticonvulsant agents” (Med Chem Res, 2010).
Calls of active or inactive are those of the source. No cut-off for these calls is given here.

Experiments:
[1] = test system: Mus musculus; experiment: Anticonvulsant activity in ip dosed Mus musculus Swiss Webster (mouse) assessed as protection against subcutaneous pentylenetetrazole-induced seizure at 0.5 hr; type: functional
[2] = test system: Mus musculus; experiment: Anticonvulsant activity in Mus musculus (mouse) assessed as protection against maximal electroshock-induced seizure at 300 mg/kg, ip; type: functional, organism-based; parameters: dose 300 mg/kg
[3] = test system: Mus musculus; experiment: Anticonvulsant activity in ip dosed Mus musculus Swiss Webster (mouse) assessed as protection against maximal electroshock-induced seizure at 0.5 hr; type: functional
[4] = test system: Mus musculus; experiment: Anticonvulsant activity in Mus musculus (mouse) assessed as protection against subcutaneous pentylenetetrazole-induced seizure up to 300 mg/kg, ip; type: functional, organism-based; parameters: dose 300 mg/kg
[5] = test system: Rattus norvegicus; experiment: Neurotoxicity in Rattus norvegicus (rat) assessed as minimal motor impairment at 20 mg/kg, ip at 5 min by rotorod test; type: toxicity, organism-based; parameters: dose 20 mg/kg, route intraperitoneal; conditions: in vivo
[6] = test system: Mus musculus; experiment: Anticonvulsant activity in Mus musculus (mouse) assessed as protection against maximal electroshock-induced seizure up to 300 mg/kg, ip; type: functional, organism-based; parameters: dose 300 mg/kg
[7] = Neurotoxicity in po dosed Rattus norvegicus (rat) assessed as minimal motor impairment by rotorod test; type: toxicity, organism-based; conditions: in vivo
[8] = test system: Rattus norvegicus; experiment: Neurotoxicity in Rattus norvegicus (rat) assessed as minimal motor impairment at 20 mg/kg, ip at 10 min by rotorod test; type: toxicity, organism-based; parameters: dose 20 mg/kg, route intraperitoneal; conditions: in vivo
[9] = test system: Rattus norvegicus; experiment: Anticonvulsant activity in po dosed Rattus norvegicus (rat) assessed as protection against subcutaneous pentylenetetrazole-induced seizure; type: functional
[10] = test system: Rattus norvegicus; experiment: Anticonvulsant activity in Rattus norvegicus (rat) assessed as protection against maximal electroshock-induced seizure at 20 mg/kg, ip at 10 min; type: functional, organism-based; parameters: dose 20 mg/kg
[11] = test system: Rattus norvegicus; experiment: Anticonvulsant activity in Rattus norvegicus (rat) assessed as protection against maximal electroshock-induced seizure at 20 mg/kg, ip at 60 min; type: functional, organism-based; parameters: dose 20 mg/kg
[12] = test system: Rattus norvegicus; experiment: Neurotoxicity in Rattus norvegicus (rat) assessed as minimal motor impairment at 20 mg/kg, ip at 60 min by rotorod test; type: toxicity, organism-based; parameters: dose 20 mg/kg, route intraperitoneal; conditions: in vivo, 1 h
[13] = test system: Rattus norvegicus; experiment: Protective index, ratio of TD50 for po dosed Rattus norvegicus (rat) to ED50 for po dosed rat by maximal electroshock seizures test; type: functional
[14] = test system: Rattus norvegicus; experiment: Neurotoxicity in Rattus norvegicus (rat) at 300 mg/kg, ip; type: toxicity, organism-based; parameters: dose 300 mg/kg, route intraperitoneal; conditions: in vivo
[15] = test system: Rattus norvegicus; experiment: Anticonvulsant activity Rattus norvegicus (rat) assessed as reduction of hippocampus kindling at 100 mg/kg, ip; type: functional, organism-based; parameters: dose 100 mg/kg
[16] = test system: Rattus norvegicus; experiment: Anticonvulsant activity in po dosed Rattus norvegicus (rat) assessed as protection against maximal electroshock-induced seizure; type: functional
[17] = test system: Rattus norvegicus; experiment: Protective index, ratio of TD50 for po dosed Rattus norvegicus (rat) to ED50 for po dosed rat by subcutaneous pentylenetetrazole seizure test; type: functional
[18] = test system: Rattus norvegicus; experiment: Neurotoxicity in Rattus norvegicus (rat) assessed as minimal motor impairment at 20 mg/kg, ip at 30 min by rotorod test; type: toxicity, organism-based; parameters: dose 20 mg/kg, route intraperitoneal; conditions: in vivo, 0.5 h
[19] = test system: Rattus norvegicus; experiment: Neurotoxicity in Rattus norvegicus (rat) assessed as minimal motor impairment at 20 mg/kg, ip at 15 min by rotorod test; type: toxicity, organism-based; parameters: dose 20 mg/kg, route intraperitoneal; conditions: in vivo, 0.25 h
[20] = test system: Mus musculus; experiment: Anticonvulsant activity in Mus musculus Swiss Webster (mouse) assessed as protection against subcutaneous pentylenetetrazole-induced seizure up to 300 mg/kg, ip at 0.5 hr; type: functional, organism-based; parameters: dose 300 mg/kg
[21] = test system: Mus musculus; experiment: Anticonvulsant activity in ip dosed Mus musculus (mouse) assessed as protection against subcutaneous pentylenetetrazole-induced seizure; type: functional
[22] = test system: Mus musculus; experiment: Anticonvulsant activity in po dosed Mus musculus Swiss Webster (mouse) assessed as protection against maximal electroshock-induced seizure at 0.5 hr; type: functional
[23] = test system: Mus musculus; experiment: Anticonvulsant activity in ip dosed Mus musculus (mouse) assessed as protection against maximal electroshock-induced seizures; type: functional
[24] = test system: Mus musculus; experiment: Anticonvulsant activity in Mus musculus (mouse) assessed as protection against subcutaneous pentylenetetrazole-induced seizure at 300 mg/kg, ip; type: functional, organism-based; parameters: dose 300 mg/kg
[25] = test system: Mus musculus; experiment: Anticonvulsant activity in po dosed Mus musculus (mouse) assessed as protection against maximal electroshock-induced seizure; type: functional
[26] = test system: Rattus norvegicus; experiment: Anticonvulsant activity in Rattus norvegicus (rat) assessed as protection against maximal electroshock-induced seizure at 20 mg/kg, ip at 15 min; type: functional, organism-based; parameters: dose 20 mg/kg
[27] = test system: Rattus norvegicus; experiment: Anticonvulsant activity in Rattus norvegicus (rat) assessed as protection against maximal electroshock-induced seizure at 30 mg/kg, po; type: functional, organism-based; parameters: dose 30 mg/kg
[28] = test system: Rattus norvegicus; experiment: Anticonvulsant activity in Rattus norvegicus (rat) assessed as protection against maximal electroshock-induced seizure at 20 mg/kg, ip at 30 min; type: functional, organism-based; parameters: dose 20 mg/kg
[29] = test system: Rattus norvegicus; experiment: Anticonvulsant activity in ip dosed Rattus norvegicus (rat) assessed as protection against maximal electroshock-induced seizure; type: functional
[30] = Neurotoxicity in ip dosed Mus musculus (mouse) assessed as minimal motor impairment by rotorod test; type: toxicity, organism-based; conditions: in vivo
[31] = test system: Mus musculus; experiment: Anticonvulsant activity in Mus musculus (mouse) assessed as protection against maximal electroshock-induced seizure at 100 mg/kg, ip; type: functional, organism-based; parameters: dose 100 mg/kg
[32] = Neurotoxicity in ip dosed Rattus norvegicus (rat) assessed as minimal motor impairment at 0.5 hr by rotorod test; type: toxicity, organism-based; conditions: in vivo
[33] = test system: Mus musculus; experiment: Anticonvulsant activity in Mus musculus Swiss Webster (mouse) assessed as protection against maximal electroshock-induced seizure at 300 mg/kg, ip at 0.5 hr; type: functional, organism-based; parameters: dose 300 mg/kg

SMILES: O=C(NCc1ccccc1)OCc1ccccc1 [BENZYL BENZYLCARBAMATE]
- ED50 [1]: 115 mg/kg
- Activity [2]: Active
- ED50 [3]: 170 mg/kg
- Activity [4]: inactive

SMILES: C[C@H](CO)NC(=O)OCc1ccccc1
- ED50 [1]: 226 mg/kg
- Activity [5]: Non-toxic
- Activity [6]: inactive
- TD50 [7]: > 500 mg/kg
- Activity [8]: Non-toxic
- ED50 [9]: > 250 mg/kg
- Activity [10]: inactive
- Activity [11]: inactive
- ED50 [3]: 60.1 mg/kg
- Activity [4]: inactive
- Activity [12]: Non-toxic
- Ratio TD50/ED50 [13]: >21
- Activity [14]: Toxic
- Activity [15]: inactive
- ED50 [16]: 23.9 mg/kg
- Ratio TD50/ED50 [17]: 2
- Activity [18]: Non-toxic
- Activity [19]: Non-toxic

SMILES: NC(=O)OCCc1ccccc1 [PHENYLETHYL CARBAMATE]
- ED50 [3]: 17.7 mg/kg
- Activity [20]: inactive

SMILES: NC(=O)OCC(COC(N)=O)c1ccccc1 [FELBAMATE]
- ED50 [21]: 126 mg/kg
- ED50 [1]: 548 mg/kg
- ED50 [22]: 52 mg/kg
- TD50 [7]: > 500 mg/kg
- ED50 [9]: > 250 mg/kg
- ED50 [3]: 35 mg/kg
- Activity [15]: inactive
- ED50 [16]: 25.3 mg/kg
- ED50 [23]: 35.5 mg/kg

SMILES: CNC(=O)OCc1ccccc1 [BENZYL N-METHYLCARBAMATE]
- ED50 [3]: 40.5 mg/kg
- Activity [20]: inactive

SMILES: CCCC(C)(COC(N)=O)COC(N)=O [MEPROBAMATE]
- ED50 [1]: 66 mg/kg
- ED50 [22]: 165 mg/kg
- ED50 [3]: 127 mg/kg

SMILES: CCCC(CO)NC(=O)OCc1ccccc1 (racemic)
- ED50 [1]: 281 mg/kg
- Activity [24]: Active
- Activity [2]: Active
- ED50 [3]: 51.8 mg/kg

SMILES: O=C(NCCO)OCc1ccccc1
- ED50 [1]: 170 mg/kg
- Activity [2]: Active
- ED50 [3]: 25.2 mg/kg
- Activity [4]: inactive

SMILES: NC(=O)OCC(CO)c1ccccc1 (stereo unspecified)
- ED50 [25]: 154 mg/kg

SMILES: C[C@@H](CO)NC(=O)OCc1ccccc1
- ED50 [1]: 258 mg/kg
- Activity [5]: Non-toxic
- Activity [6]: inactive
- TD50 [7]: > 360 mg/kg
- Activity [8]: Non-toxic
- ED50 [9]: > 125 mg/kg
- Activity [26]: inactive
- Activity [27]: Active
- Activity [28]: inactive
- ED50 [3]: 54.7 mg/kg
- Activity [4]: inactive
- Activity [12]: Non-toxic
- Ratio TD50/ED50 [13]: >5.3
- ED50 [16]: 67.6 mg/kg
- Ratio TD50/ED50 [17]: 2.88
- Activity [18]: Non-toxic
- Activity [19]: Non-toxic

SMILES: O=C(N[C@@H](CO)Cc1ccccc1)OCc1ccccc1
- Anticonvulsant activity [1]: Active
- Activity [2]: Active
- ED50 [3]: 14.9 mg/kg
- Activity [4]: inactive

SMILES: CCC(COC(N)=O)c1ccccc1 (racemic)
- ED50 [21]: 87.6 mg/kg
- ED50 [1]: 124 mg/kg
- ED50 [29]: 16.1 mg/kg
- TD50 [7]: > 320 mg/kg
- TD50 [30]: 114 mg/kg
- ED50 [9]: > 40 mg/kg
- Activity [27]: Active
- Activity [24]: Active
- ED50 [3]: 71.7 mg/kg
- Activity [31]: Active
- Ratio TD50/ED50 [13]: >15.3
- Activity [14]: Toxic
- Activity [15]: inactive
- ED50 [16]: 21 mg/kg
- Ratio TD50/ED50 [17]: 8
- ED50 [23]: 72.7 mg/kg
- TD50 at 0.5 h [32]: 50.5 mg/kg

SMILES: O=C(N[C@H](CO)Cc1ccccc1)OCc1ccccc1
- Activity [1]: Active
- Activity [2]: Active
- ED50 [3]: 33.5 mg/kg
- Activity [4]: inactive

SMILES: NC(=O)OCc1ccccc1 [BENZYL CARBAMATE]
- ED50 [1]: 80.2 mg/kg
- ED50 [3]: 30.6 mg/kg

SMILES: NC(=O)Oc1ccccc1 [CARBAMIC ACID PHENYL ESTER]
- ED50 [1]: 101 mg/kg
- Activity [33]: Active

SMILES: CC[C@H](CO)NC(=O)OCc1ccccc1
- ED50 [1]: 144 mg/kg
- Activity [2]: Active
- ED50 [3]: 80.5 mg/kg
- Activity [4]: inactive

SMILES: CC[C@@H](CO)NC(=O)OCc1ccccc1
- ED50 [1]: 111 mg/kg
- Activity [2]: Active
- ED50 [3]: 123 mg/kg
- Activity [4]: inactive
